Laboratory results as given in patent US20230265483A1, “METHODS FOR TESTING ANDEXANET POTENCY” (Alexion Pharmaceuticals, Inc., priority 2020, published 2023).

Tests used:
[1] = molecular target: T1, bovine fXa (BFXa) (Bos taurus, UniProt P00743); test: Inhibition of bovine fXa by betrixaban; type: biochemical; conditions: in words
T1 construct: purchased Hyphen BioMed (France) BE1010/BE101K

[2] = molecular target: T2, BFXa (Bos taurus, UniProt P00743); test: Direct potency assay with BFXa/betrixaban mixture; type: biochemical, bovine; conditions: BFXa (1×)/betrixaban (1×) vs HFXa (1×)/betrixaban (1×), no andexanet
T2 construct: purchased Hyphen BioMed (France) BE1010/BE101K
T2 sequence (P00743 234-492 limits assumed): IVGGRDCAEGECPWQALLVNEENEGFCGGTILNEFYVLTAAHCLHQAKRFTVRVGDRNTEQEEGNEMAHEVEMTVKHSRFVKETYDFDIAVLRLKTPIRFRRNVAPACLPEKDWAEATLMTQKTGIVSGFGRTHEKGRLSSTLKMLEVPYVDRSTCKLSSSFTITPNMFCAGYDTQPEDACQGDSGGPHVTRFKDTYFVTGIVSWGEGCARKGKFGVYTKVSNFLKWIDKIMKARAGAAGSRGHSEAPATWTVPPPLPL
T2 sequence (P00743 41-180 partner limits assumed): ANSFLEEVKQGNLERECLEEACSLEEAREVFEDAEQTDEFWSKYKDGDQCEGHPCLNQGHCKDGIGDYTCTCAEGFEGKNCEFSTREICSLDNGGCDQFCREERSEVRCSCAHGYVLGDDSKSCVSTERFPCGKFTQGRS
Procedure: The stock solutions for HFXa, BFXa and betrixaban were first prepared separately. FXa/betrixaban mixture was prepared by mixing different volumes of the stock solutions of FXa and betrixban, resulting in HFXa/betrixaban or BFXa/betrixaban. The FXa/betrixaban mixture (50 μL) was added to the reaction mixture as described in the direct potency assay. The HFXa (1×)/betrixaban (1×) mixture (O) was used as a control.
Preparation of fXa and Betrixaban (fXa Inhibitor) • a) Dilute the fXa to 50 μg/mL then further dilute to 1.0 μg/mL in assay buffer. • b) Dilute fXa inhibitor (226 μg/mL betrixaban stock) to 40 ng/mL in assay buffer as described in the table below. • c) Add equal volumes of diluted fXa and fXa inhibitor (betrixaban) into an appropriate container by combining 6 mL of FXa at 1.0 μg/mL and 6 mL of fXa inhibitor at 40 ng/mL. Mix well. • 4. Preparation of fXa and fXa Inhibitor Controls • a) Prepare the fXa control by mixing 100 μL of diluted fXa with 300 μL of assay buffer. • b) Prepare fXa inhibitor (betrixaban) control by mixing 200 μL of the fXa inhibitor mixture and 200 μL assay buffer. • 5. Transfer 50 μL/well of reference standard (RS), assay control (CTRL) and test samples (TS) to the assay plate. • 6. […] Read the microplate at 405 nm as the test wavelength and 490 nm as the reference wavelength. • 14. […]

T1 sequence (P00743 234-492 limits assumed): as the sequence (P00743 234-492 limits assumed) above
T1 sequence (P00743 41-180 partner limits assumed): as the sequence (P00743 41-180 partner limits assumed) above

potency of inhibition of bovine fXa compared with human fXa [1]: less potent | inhibition of BFXa activity (background in absence of andexanet) [2]: less inhibition of BFXa activity
SMILES: COc1ccc(NC(=O)c2ccc(C(=N)N(C)C)cc2)c(C(=O)Nc2ccc(Cl)cn2)c1 [betrixaban]
